Results as given in patent publication US8614214B2, “Pyrazole amide compounds and uses thereof” (Sinochem Corporation, priority 2010, dated 2013).
Where two headings read alike, the source gives them in different places.

Assays:
corn rust = test: Greenhouse pot seedling assay, corn rust; assay type: in vivo; details: for Control (%): comparative test, Table 20; for control of corn rust: greenhouse
sigatoka = assay type: cell-based
wheat powdery mildew = test: Greenhouse pot seedling assay, wheat powdery mildew; assay type: in vivo; details: 400 ppm
mango anthracnose = assay type: cell-based
cucumber downy mildew [1] = test: Persistence comparative test against cucumber downy mildew (greenhouse); assay type: in vivo
cucumber downy mildew [2] = test: Field trial against cucumber downy mildew; assay type: in vivo; details: for Control (%) average: average of 3 replicates; for Control (%) I: replicate I; for Control (%) II: replicate II; for Control (%) III: replicate III
Description: The trial was carried out in a greenhouse in July 2011 in […] district, Shanxi Province. Before the treatment, the cucumber plants were at the beginning of infection. The trial method was based on the National Standard of the People's Republic of China-“Pesticide-Guidelines for The Field Efficacy Trials”. […] The Area of plot was 15 m^2, random arrangement and 3 times replication. The volume was about 600 L/hm^2, and water was as the control. Efficacy calculation method is as follows: [formula] [formula]

rice blast [3] = assay type: in vivo
[4] = tested on: corn southern leaf blight; assay type: cell-based
rice blast [5] = assay type: cell-based
banana anthracnose = assay type: cell-based
rice sheath blight = assay type: cell-based
cucumber downy mildew [6] = test: Greenhouse pot seedling assay, cucumber downy mildew; assay type: in vivo; details: for Control (%): comparative test, Table 18; for control of cucumber downy mildew: greenhouse

## CNC(=O)c1ccccc1NC(=O)COc1ccc(CNC(=O)c2c(Cl)c(C)nn2C)cc1 [Compound 15]
Corn rust; 3.13 ppm
  Control (%): 20%
Corn rust; 6.25 ppm
  Control (%): 60%
Corn rust; 12.5 ppm
  Control (%): 80%
Corn rust; 25 ppm
  Control (%): 95%
  control of corn rust: 100%
Corn rust; 50 ppm
  Control (%): 100%
Corn rust; 100 ppm
  Control (%): 100%
Corn rust; 400 ppm, Table 21
  Biological activity in greenhouse, corn rust: 100
Corn rust; 400 ppm
  control of corn rust: 100%
sigatoka
  EC50 against sigatoka: 2.389 ppm
Wheat powdery mildew; Table 21
  Biological activity in greenhouse, wheat powdery mildew: 100
Wheat powdery mildew; greenhouse
  control of wheat powdery mildew: 100%
Mango anthracnose
  EC50 against mango anthracnose: 1.518 ppm
Cucumber downy mildew [1]; 25 ppm, inoculation 3 days after treatment
  Control (%): 52%
Cucumber downy mildew [1]; 25 ppm, inoculation 7 days after treatment
  Control (%): 44%
Cucumber downy mildew [1]; 50 ppm, inoculation 3 days after treatment
  Control (%): 74%
Cucumber downy mildew [1]; 50 ppm, inoculation 7 days after treatment
  Control (%): 62%
Cucumber downy mildew [1]; 100 ppm, inoculation 3 days after treatment
  Control (%): 96%
Cucumber downy mildew [1]; 100 ppm, inoculation 7 days after treatment
  Control (%): 70%
Cucumber downy mildew [1]; 200 ppm, inoculation 3 days after treatment
  Control (%): 100%
Cucumber downy mildew [1]; 200 ppm, inoculation 7 days after treatment
  Control (%): 74%
Cucumber downy mildew [1]; 400 ppm, inoculation 3 days after treatment
  Control (%): 100%
Cucumber downy mildew [1]; 400 ppm, inoculation 7 days after treatment
  Control (%): 81%
Cucumber downy mildew [2]; 100 ppm
  Control (%) average: 52%
  Control (%) I: 33%
  Control (%) II: 53%
  Control (%) III: 69%
Cucumber downy mildew [2]; 200 ppm
  Control (%) average: 66%
  Control (%) I: 60%
  Control (%) II: 65%
  Control (%) III: 72%
Cucumber downy mildew [2]; 400 ppm
  Control (%) average: 82%
  Control (%) I: 80%
  Control (%) II: 81%
  Control (%) III: 86%
Rice blast [3]; 400 ppm
  Control (%) I: 69%
  Control (%) II: 71%
  Control (%) III: 67%
  Control (%) average: 69%
Rice blast [3]; 600 ppm
  Control (%) I: 77%
  Control (%) II: 81%
  Control (%) III: 77%
  Control (%) average: 78%
Rice blast [3]; 800 ppm
  Control (%) I: 84%
  Control (%) II: 89%
  Control (%) III: 88%
  Control (%) average: 87%
[4]
  EC50 against corn southern leaf blight: 0.035 ppm
Rice blast [5]; 0.3 ppm
  inhibition ratio on spore germination of rice blast: 100%
Rice blast [5]; 25 ppm
  inhibition ratio on spore germination of rice blast: 100%
Banana anthracnose
  EC50 against banana anthracnose: 2.867 ppm
Rice sheath blight
  EC50 against rice sheath blight: 0.799 ppm
Cucumber downy mildew [6]; 6.25 ppm
  Control (%): 44%
Cucumber downy mildew [6]; 12.5 ppm
  Control (%): 66%
Cucumber downy mildew [6]; 25 ppm
  Control (%): 88%
  control of cucumber downy mildew: 100%
Cucumber downy mildew [6]; 50 ppm
  Control (%): 96%
  control of cucumber downy mildew: 100%
Cucumber downy mildew [6]; 100 ppm
  Control (%): 100%
Cucumber downy mildew [6]; 400 ppm, Table 21
  Biological activity in greenhouse, cucumber downy mildew: 100
Cucumber downy mildew [6]; 400 ppm
  control of cucumber downy mildew: 100%
